Drawing on patent US7217730B2, “Method for the use of pyranoindole derivatives to treat infection with Hepatitis C virus” (Wyeth, priority 2002, dated 2007), this text covers inhibition and IC50 for 32 compounds.

Some results are limits rather than exact numbers.

The target of this experiment is T1, NS5B from the BK strain (genotype 1b) (Hepatitis C virus genotype 1b, UniProt P26663).
T1 construct: NS5B from the BK strain (genotype 1b) is expressed in E. coli as a protein in which the 21 C-terminal amino acids are replaced; made in house; host or cells: E. coli
Briefly: Hepatitis C polymerase inhibition, NS5B BK strain, 33P-GTP filter assay. The format is biochemical. The following applies: Table 1A; for inhibition at 20 µM: 20 μM compound, read-out: HCV pol % inh at 20 μM; for IC50: NS5B BK strain, read-out: HCV pol BK IC50. The essentials:
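Radiolabelled RNA synthesis was measured by filter capture and scintillation counting after EDTA stop. His-tagged, C-terminally truncated (Δ21) genotype 1b BK NS5B from E. coli, pre-exposed to compound for 15 min, copied a self-primed RNA template (~3 nM) with α-[33P]-GTP for 2 h at room temperature.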

T1 sequence (P26663 2420-2989): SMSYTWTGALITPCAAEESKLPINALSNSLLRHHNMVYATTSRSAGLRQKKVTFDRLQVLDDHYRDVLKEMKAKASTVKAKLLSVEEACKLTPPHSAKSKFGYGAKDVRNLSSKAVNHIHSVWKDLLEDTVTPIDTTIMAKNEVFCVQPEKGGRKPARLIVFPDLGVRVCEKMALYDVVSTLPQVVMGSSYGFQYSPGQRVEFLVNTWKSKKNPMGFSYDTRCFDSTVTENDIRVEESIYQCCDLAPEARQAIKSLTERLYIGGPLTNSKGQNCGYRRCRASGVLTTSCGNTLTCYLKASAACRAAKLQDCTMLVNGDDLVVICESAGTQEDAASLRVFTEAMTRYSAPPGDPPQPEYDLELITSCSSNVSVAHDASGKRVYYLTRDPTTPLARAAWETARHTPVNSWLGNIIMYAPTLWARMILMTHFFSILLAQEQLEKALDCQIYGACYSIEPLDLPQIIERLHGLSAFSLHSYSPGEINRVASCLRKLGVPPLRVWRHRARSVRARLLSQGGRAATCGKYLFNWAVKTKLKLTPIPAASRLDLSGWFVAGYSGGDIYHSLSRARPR

As for `CCCC1(CC(=O)O)OCCc2c1[nH]c1c(F)cc(F)c(C#N)c21` (centres unmarked) [Example 195, (5-cyano-6,8-difluoro-1-propyl-1,3,4,9-tetrahydropyrano[3,4-b]indol-1-yl)acetic acid], the inhibition at 20 µM turned out to be 90% and the IC50 (as a rule, the concentration needed to halve the response being measured) amounted to 270 nM.
For the compound `CCCCC1(CC(=O)O)OCCc2c1[nH]c1c(F)cc(F)c(C#N)c21` (centres unmarked) [Example 196, (1-butyl-5-cyano-6,8-difluoro-1,3,4,9-tetrahydropyrano[3,4-b]indol-1-yl)acetic acid], the inhibition at 20 µM came out at 77% and the half-inhibitory concentration (IC50) came out at 1200 nM.
In the same order, the values of `N#Cc1c(F)cc(F)c2[nH]c3c(c12)CCOC3(CC(=O)O)c1ccoc1` (centres unmarked) [Example 197, [5-cyano-6,8-difluoro-1-(3-furyl)-1,3,4,9-tetrahydropyrano[3,4-b]indol-1-yl]acetic acid] are 55% and above 5000 nM.
The matching figures for `CC(C)C1(CC(=O)O)OCCc2c1[nH]c1c(F)cc(F)c(C#N)c21` (centres unmarked) [Example 198, (5-cyano-6,8-difluoro-1-isopropyl-1,3,4,9-tetrahydropyrano[3,4-b]indol-1-yl)acetic acid]: 82% and above 5000 nM.
The matching figures for `Cc1cc(F)c(Br)c2c3c([nH]c12)C(C)(CC(=O)O)OCC3` (centres unmarked) [Example 199, (5-bromo-6-fluoro-1,8-dimethyl-1,3,4,9-tetrahydropyrano[3,4-b]indol-1-yl)acetic acid]: 52% and above 5000 nM.
As for `CCC1(CC(=O)O)OCCc2c1[nH]c1c(C)cc(F)c(Br)c21` (centres unmarked) [Example 200, (5-bromo-1-ethyl-6-fluoro-8-methyl-1,3,4,9-tetrahydropyrano[3,4-b]indol-1-yl)acetic acid], the inhibition at 20 µM amounted to 83% and the IC50 came out at 2100 nM.
For `CCCC1(CC(=O)O)OCCc2c1[nH]c1c(C)cc(F)c(Br)c21` (centres unmarked) [Example 201, (5-bromo-6-fluoro-8-methyl-1-propyl-1,3,4,9-tetrahydropyrano[3,4-b]indol-1-yl)acetic acid], the inhibition at 20 µM came out at 82% and the concentration for half-maximal inhibition (IC50) was 150 nM.
Take `Cc1cc(F)c(Br)c2c3c([nH]c12)C(CC(=O)O)(C(C)C)OCC3` (centres unmarked) [Example 202, (5-bromo-6-fluoro-1-isopropyl-8-methyl-1,3,4,9-tetrahydropyrano[3,4-b]indol-1-yl)acetic acid]: the inhibition at 20 µM came to 82% and the half-inhibitory concentration (IC50) worked out at 2900 nM.
In the same order, the values of `CCCCC1(CC(=O)O)OCCc2c1[nH]c1c(C)cc(F)c(Br)c21` (centres unmarked) [Example 203, (5-bromo-1-butyl-6-fluoro-8-methyl-1,3,4,9-tetrahydropyrano[3,4-b]indol-1-yl)acetic acid] are 94% and 190 nM.
As to `Cc1cc(F)c(Br)c2c3c([nH]c12)C(CC(=O)O)(c1ccc(C(=O)O)cc1)OCC3` (centres unmarked) [Example 204, 4-[5-bromo-1-(carboxymethyl)-6-fluoro-8-methyl-1,3,4,9-tetrahydropyrano[3,4-b]indol-1-yl]benzoic acid], the inhibition at 20 µM was found to be 87% and the 50% inhibitory concentration (IC50) was determined as 1200 nM.
As to `Cc1cc(F)c(C#N)c2c3c([nH]c12)C(C)(CC(=O)O)OCC3` (centres unmarked) [Example 205, (5-cyano-6-fluoro-1,8-dimethyl-1,3,4,9-tetrahydropyrano[3,4-b]indol-1-yl)acetic acid], the inhibition at 20 µM was determined as 34% and the IC50 is above 20000 nM.
The matching figures for `CCC1(CC(=O)O)OCCc2c1[nH]c1c(C)cc(F)c(C#N)c21` (centres unmarked) [Example 206, (5-cyano-1-ethyl-6-fluoro-8-methyl-1,3,4,9-tetrahydropyrano[3,4-b]indol-1-yl)acetic acid]: 84% and 1100 nM.
In the same order, the values of `Cc1cc(F)c(C#N)c2c3c([nH]c12)C(CC(=O)O)(C(C)C)OCC3` (centres unmarked) [Example 207, (5-cyano-6-fluoro-1-isopropyl-8-methyl-1,3,4,9-tetrahydropyrano[3,4-b]indol-1-yl)acetic acid] are 76% and 580 nM.
As for `CCCCC1(CC(=O)O)OCCc2c1[nH]c1c(C)cc(F)c(C#N)c21` (centres unmarked) [Example 208, (1-butyl-5-cyano-6-fluoro-8-methyl-1,3,4,9-tetrahydropyrano[3,4-b]indol-1-yl)acetic acid], the inhibition at 20 µM came out at 88% and the IC50 amounted to 230 nM.
In the same order, the values of `Cc1cc(F)c(C#N)c2c3c([nH]c12)C(CC(=O)O)(c1ccc(C(=O)O)cc1)OCC3` (centres unmarked) [Example 209, 4-[1-(carboxymethyl)-5-cyano-6-fluoro-8-methyl-1,3,4,9-tetrahydropyrano[3,4-b]indol-1-yl]benzoic acid] are 63% and 17900 nM.
The matching figures for `CCC1(CC(=O)O)OCCc2c1[nH]c1c(Br)ccc(Br)c21` (centres unmarked) [Example 210, (5,8-dibromo-1-ethyl-1,3,4,9-tetrahydropyrano[3,4-b]indol-1-yl)acetic acid]: 87% and 430 nM.
`CCCC1(CC(=O)O)OCCc2c1[nH]c1c(Br)ccc(Br)c21` (centres unmarked) [Example 211, (5,8-dibromo-1-propyl-1,3,4,9-tetrahydropyrano[3,4-b]indol-1-yl)acetic acid]: the inhibition at 20 µM was 89% and the half-maximal inhibitory concentration (IC50) worked out at 130 nM.
In the same order, the values of `CC(C)C1(CC(=O)O)OCCc2c1[nH]c1c(Br)ccc(Br)c21` (centres unmarked) [Example 212, (5,8-dibromo-1-isopropyl-1,3,4,9-tetrahydropyrano[3,4-b]indol-1-yl)acetic acid] are 81% and 400 nM.
The matching figures for `CCCCC1(CC(=O)O)OCCc2c1[nH]c1c(Br)ccc(Br)c21` (centres unmarked) [Example 213, (5,8-dibromo-1-butyl-1,3,4,9-tetrahydropyrano[3,4-b]indol-1-yl)acetic acid]: 87% and 280 nM.
Consider `CCCC1(CC(=O)O)OCCc2c1[nH]c1c(F)ccc(Cl)c21` (centres unmarked) [Example 214, (5-chloro-8-fluoro-1-propyl-1,3,4,9-tetrahydropyrano[3,4-b]indol-1-yl)acetic acid], for which the inhibition at 20 µM amounted to 82% and the IC50 came to 740 nM.
As to `CCCC1(CC(=O)O)OCCc2c1[nH]c1c(F)ccc(I)c21` (centres unmarked) [Example 215, (8-fluoro-5-iodo-1-propyl-1,3,4,9-tetrahydropyrano[3,4-b]indol-1-yl)acetic acid], the inhibition at 20 µM turned out to be 86% and the IC50 is 320 nM.
Turning to `CCCC1(CC(=O)O)OCCc2c1[nH]c1c(Cl)cc(C)c(Cl)c21` (centres unmarked) [Example 216, (5,8-dichloro-6-methyl-1-propyl-1,3,4,9-tetrahydropyrano[3,4-b]indol-1-yl)acetic acid], the inhibition at 20 µM came to 86% and the concentration for half-maximal inhibition (IC50) is 260 nM.
In the same order, the values of `CCCC1(CC(=O)O)OCCc2c1[nH]c1c(Cl)cc(C)c(I)c21` (centres unmarked) [Example 217, (8-chloro-5-iodo-6-methyl-1-propyl-1,3,4,9-tetrahydropyrano[3,4-b]indol-1-yl)acetic acid] are 88% and 630 nM.
In the same order, the values of `Cc1cc(F)c2[nH]c3c(c2c1C#N)CCOC3(C)CC(=O)O` (centres unmarked) [Example 219, (5-cyano-8-fluoro-1,6-dimethyl-1,3,4,9-tetrahydropyrano[3,4-b]indol-1-yl)acetic acid] are 30% and above 5000 nM.
In the case of `CCC1(CC(=O)O)OCCc2c1[nH]c1c(F)cc(C)c(C#N)c21` (centres unmarked) [Example 220, (5-cyano-1-ethyl-8-fluoro-6-methyl-1,3,4,9-tetrahydropyrano[3,4-b]indol-1-yl)acetic acid], the inhibition at 20 µM amounted to 43% and the IC50 was above 5000 nM.
On to `Cc1cc(F)c2[nH]c3c(c2c1C#N)CCOC3(CC(=O)O)C(C)C` (centres unmarked) [Example 222, (5-cyano-8-fluoro-1-isopropyl-6-methyl-1,3,4,9-tetrahydropyrano[3,4-b]indol-1-yl)aceti acid], for which the inhibition at 20 µM was found to be 45% and the IC50 is above 5000 nM.
Regarding `C/C=C/CCC1(CC(=O)O)OCCc2c1[nH]c1c(F)cc(C)c(C#N)c21` (centres unmarked) [Example 223, {5-cyano-8-fluoro-6-methyl-1-[(3E)-pent-3-enyl]-1,3,4,9-tetrahydropyrano[3,4-b]indol-1-yl}acetic acid], the inhibition at 20 µM amounted to 37% and the IC50 is above 5000 nM.
For the compound `CCCC1(CC(=O)O)OCCc2c1[nH]c1c(C)ccc(C(=O)NC)c21` (centres unmarked) [Example 224, (8-methyl-5-methylcarbamoyl-1-propyl-1,3,4,9-tetrahydropyrano[3,4-b]indol-1-yl)acetic acid], the IC50 was above 20000 nM.
Same read-out and setting: next, `CCCC1(CC(=O)O)OCCc2c1[nH]c1c(C)ccc(C(N)=O)c21` (centres unmarked) [Example 226, (5-carbamoyl-8-Methyl-1-propyl-1,3,4,9-tetrahydropyrano[3,4-b]indol-1-yl)acetic acid]: above 20000 nM; `CCCC1(CC(=O)O)OCCc2c1[nH]c1c(C)ccc(C(=O)N(C)C)c21` (centres unmarked) [Example 227, (5-dimethylcarbamoyl-8-Methyl-1-propyl-1,3,4,9-tetrahydropyrano[3,4-b]indol-1-yl)acetic acid]: above 20000 nM.
On the same count and under the same terms, in the case of `CCCC1(CC(=O)O)OC(C)Cc2c1[nH]c1c(F)ccc(C#N)c21` (centres unmarked) [Example 228, (5-cyano-8-fluoro-3-methyl-1-propyl-1,3,4,9-tetrahydropyrano[3,4-b]indol-1-yl)acetic acid] it was 8900 nM; in that of `CCCC1(CC(=O)O)OCC(C)c2c1[nH]c1c(Cl)ccc(Cl)c21` (centres unmarked) [Example 229, (5,8-dichloro-4-methyl-1-propyl-1,3,4,9-tetrahydropyrano[3,4-b]indol-1-yl)acetic acid], 7000 nM.
